Results reported in patent US11718618B2, “Substituted pyrido[2,1-a]isoquinolines as VMAT2 inhibitors” (priority 2021, dated 2023).

What was measured:
human VMAT2 = human VMAT2 (Homo sapiens (Human), UniProt Q05940); test: VMAT2 radioligand binding, 3H-dihydrotetrabenazine competition on human platelet homogenate; conditions: 10 nM 3H-dihydrotetrabenazine, human platelet homogenate, 25° C., 90 minutes; read-out: VMAT2 Ki
Protocol: Examples of techniques for determining the capability of a compound to inhibit VMAT2 are provided below. The procedure was adapted from that described previously (see, e.g., Near, (1986), Mol. Pharmacol. 30: 252-57; Teng, et al., J. Neurochem. 71, 258-65, 1998). Homogenates from human platelets were prepared by homogenization and then washed by centrifugation as described previously (see, e.g., Hoare et al., (2003) Peptides 24:1881-97).
The human VMAT2 Ki values for the compounds listed in Table 15A and Table 15B were determined using the following procedures. Compound dilution series in DMSO were generated from either powder stocks by hand, or from DMSO stocks using serial dilution on a Vantage (Hamilton), or direct dilution using an Echo 655 (Beckman). In a total volume of 0.145 to 0.150 mL in low-binding 96-well plates (Corning #3605), twelve concentrations of test compound were competed against 10 nM ^3H-dihydrotetrabenezine (American Radiolabeled Chemicals) on human platelet homogenate (30 μg membrane protein per well) in VMAT2 binding buffer (Dulbecco's phosphate buffered saline, 1 mM EDTA, pH 7.4). Following incubation at 25° C. for 90 minutes, bound radioligand was collected by rapid filtration onto either GF/B or GF/C glass fiber filters, pretreated with 0.100 polyethylenimine, using either a Unifilter-96 Harvester (PerkinElmer) or Microlab Star (Hamilton). Following harvesting the filter plates were washed with 0.8 mL VMAT2 binding buffer, and bound radioligand was quantified by scintillation counting using a Topcount NXT or Microplate Counter Microbeta (PerkinElmer).

[1] = Stability of compounds in human liver microsomes; type: in vitro ADME; conditions: for CLint scaled at 0.5 μM / half-life at 0.5 μM: both sexes, pH 7.4; for CLint scaled at 0.5 μM: liver microsomes, calculated from HLM half-life, read-out: HLM Scaled Intrinsic Clearance; for CLint scaled at 0.5 μM / Predicted Max. Bioavailability (% F) / HLM Predicted Systemic Clearance: human; for half-life at 0.5 μM: 0.5 μM compound, 0.5 mg/mL human liver microsomes, 37° C., maxed at 420 minutes, read-out: HLM Elimination half-life (t1/2, min); for Predicted Max. Bioavailability (% F): predicted from HLM data; for HLM Predicted Systemic Clearance: scaled from HLM half-life (Obach method)
Protocol: A test compound (0.5 μM) was incubated with pooled mixed gender liver microsomes from humans (0.5 mg/mL total protein) at 37° C. in the presence of an NADPH-generating system containing 50 mM, pH 7.4 potassium phosphate buffer, 3 mM magnesium chloride, 1 mM EDTA, 1 mM NADP, 5 mM glusose-6-phosphate, and 1 Unit/mL glucose-6-phosphate dehydrogenase. All concentrations were relative to the final incubation volume of 125 μL. Incubations were conducted at 37° C. for 0, 5, 10, 20, 40, and 60 minutes in a water bath and terminated by rapid mixing with 150 μL of ice-cold acetonitrile containing internal standard. Precipitated proteins were removed by centrifugation prior to LC-MS/MS analysis. Aliquots of the resulting supernatant fractions were analyzed by LC-MS/MS monitoring for depletion of parent compound. The resultant peak area ratio versus time data was fitted to a non-linear regression using XLfit Scientific Curve Fitting Software (IDBS Ltd., Surrey, UK) and the elimination half-life (t1/2, min) was calculated from the slope. […] Additional values calculated included predicted extraction ratio and predicted maximum bioavailability.

Chain of human VMAT2 (Q05940 whole entry): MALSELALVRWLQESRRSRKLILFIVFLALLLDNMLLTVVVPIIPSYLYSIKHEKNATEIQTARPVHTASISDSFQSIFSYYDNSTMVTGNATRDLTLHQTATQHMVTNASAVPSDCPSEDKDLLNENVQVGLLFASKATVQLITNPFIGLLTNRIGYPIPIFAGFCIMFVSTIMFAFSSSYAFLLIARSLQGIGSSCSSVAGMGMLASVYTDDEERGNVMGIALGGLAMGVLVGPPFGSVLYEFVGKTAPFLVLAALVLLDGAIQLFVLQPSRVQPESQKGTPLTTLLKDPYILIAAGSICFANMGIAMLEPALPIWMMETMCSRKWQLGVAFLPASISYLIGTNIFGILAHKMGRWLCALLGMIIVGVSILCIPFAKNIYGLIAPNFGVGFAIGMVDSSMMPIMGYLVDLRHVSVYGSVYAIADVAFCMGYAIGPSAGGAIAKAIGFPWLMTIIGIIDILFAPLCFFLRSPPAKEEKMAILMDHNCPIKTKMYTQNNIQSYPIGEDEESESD

Structure (SMILES) | Ki (human VMAT2) [nM] | CLint scaled at 0.5 μM [1] [mL/min/kg] | half-life at 0.5 μM [1] [min] | Predicted Max. Bioavailability (% F) [1] [% F] | HLM Predicted Systemic Clearance [1] [mL/min/kg]
COc1cc2c(cc1OCCC(F)(F)F)CCN1C[C@H](CC(C)(C)C)[C@@H](O)C[C@@H]21 [Compound 4-9, (2S,3S,11bS)-3-(2,2-dimethylpropyl)-10-methoxy-9-(3,3,3-trifluoropropoxy)-1H,2H,3H,4H,6H,7H,11bH-pyrido[2,1-a]isoquinolin-2-ol] | 277 | ≤ 2.97 | ≥ 420 | ≥87 | ≤2.59
COc1cc2c(cc1OCC(F)F)CCN1C[C@@H](CC(C)(C)C)[C@@H](O)C[C@H]21 [Compound 4-10, (2S,3R,11bR)-9-(2,2-difluoroethoxy)-3-(2,2-dimethylpropyl)-10-methoxy-1H,2H,3H,4H,6H,7H,11bH-pyrido[2,1-a]isoquinolin-2-ol] | 15 | 3.65 | 342 | 85 | 3.09
COc1cc2c(cc1OCC(C)(F)F)CCN1C[C@@H](CC(C)(C)C)[C@@H](O)C[C@H]21 [Compound 4-11, (2S,3R,11bR)-9-(2,2-difluoropropoxy)-3-(2,2-dimethylpropyl)-10-methoxy-1H,2H,3H,4H,6H,7H,11bH-pyrido[2,1-a]isoquinolin-2-ol] | 14 | ≤ 2.97 | ≥ 420 | ≥87 | ≤2.59
COc1cc2c(cc1OCCC(F)(F)F)CCN1C[C@@H](CC(C)(C)C)[C@@H](O)C[C@H]21 [Compound 4-12, (2S,3R,11bR)-3-(2,2-dimethylpropyl)-10-methoxy-9-(3,3,3-trifluoropropoxy)-1H,2H,3H,4H,6H,7H,11bH-pyrido[2,1-a]isoquinolin-2-ol] | 3.4 | ≤ 2.97 | ≥ 420 | ≥87 | ≤2.59
COc1cc2c(cc1OCC(F)F)CCN1C[C@@H](CC(C)(C)C)[C@H](O)C[C@H]21 [Compound 4-13, (2R,3R,11bR)-9-(2,2-difluoroethoxy)-3-(2,2-dimethylpropyl)-10-methoxy-1H,2H,3H,4H,6H,7H,11bH-pyrido[2,1-a]isoquinolin-2-ol] | 2.2 | ≤ 2.97 | ≥ 420 | ≥87 | ≤2.59
COc1cc2c(cc1OCC(C)(F)F)CCN1C[C@@H](CC(C)(C)C)[C@H](O)C[C@H]21 [Compound 4-14, (2R,3R,11bR)-9-(2,2-difluoropropoxy)-3-(2,2-dimethylpropyl)-10-methoxy-1H,2H,3H,4H,6H,7H,11bH-pyrido[2,1-a]isoquinolin-2-ol] | 2.6 | ≤ 2.97 | ≥ 420 | ≥87 | ≤2.59
COc1cc2c(cc1OCC(F)(F)F)CCN1C[C@@H](CC(C)(C)C)[C@@H](O)C[C@H]21 [Compound 4-16, (2S,3R,11bR)-3-(2,2-dimethylpropyl)-10-methoxy-9-(2,2,2-trifluoroethoxy)-1H,2H,3H,4H,6H,7H,11bH-pyrido[2,1-a]isoquinolin-2-ol] | 22 | ≤ 2.97 | ≥ 420 | ≥87 | ≤2.59
CCOc1cc2c(cc1OC)[C@H]1C[C@@H](O)[C@H](CC(C)(C)C)CN1CC2 [Compound 4-17, (2R,3R,11bR)-3-(2,2-dimethylpropyl)-9-ethoxy-10-methoxy-1H,2H,3H,4H,6H,7H,11bH-pyrido[2,1-a]isoquinolin-2-ol] | 1.1 | 32.9 | 38 | 38 | 12.44
COc1cc2c(cc1OCCF)CCN1C[C@@H](CC(C)(C)C)[C@H](O)C[C@H]21 [Compound 4-18, (2R,3R,11bR)-3-(2,2-dimethylpropyl)-9-(2-fluoroethoxy)-10-methoxy-1H,2H,3H,4H,6H,7H,11bH-pyrido[2,1-a]isoquinolin-2-ol] | 5.5 | 8.05 | 155 | 71 | 5.74
COc1cc2c(cc1OCC1(F)COC1)CCN1C[C@@H](CC(C)(C)C)[C@H](O)C[C@H]21 [Compound 4-19, (2R,3R,11bR)-3-(2,2-dimethylpropyl)-9-[(3-fluorooxetan-3-yl)methoxy]-10-methoxy-1H,2H,3H,4H,6H,7H,11bH-pyrido[2,1-a]isoquinolin-2-ol] | 8.1 | 14.2 | 88 | 59 | 8.3
COc1cc2c(cc1OCC1COC1)CCN1C[C@@H](CC(C)(C)C)[C@H](O)C[C@H]21 [Compound 4-22, (2R,3R,11bR)-3-(2,2-dimethylpropyl)-10-methoxy-9-(oxetan-3-ylmethoxy)-1H,2H,3H,4H,6H,7H,11bH-pyrido[2,1-a]isoquinolin-2-ol] | 14 | 9.6 | 130 | 68 | 6.49
COc1cc2c(cc1OCCOC1(C#N)CCC1)CCN1C[C@@H](CC(C)(C)C)[C@H](O)C[C@H]21 [Compound 4-23, 1-(2-{[(2R,3R,11bR)-3-(2,2-dimethylpropyl)-2-hydroxy-10-methoxy-1H,2H,3H,4H,6H,7H,11bH-pyrido[2,1-a]isoquinolin-9-yl]oxy}ethoxy)cyclobutane-1-carbonitrile] | 0.41 | 58.5 | 21 | 25 | 14.9
COc1cc2c(cc1OCC1(OS(C)(=O)=O)CC1)CCN1C[C@@H](CC(C)(C)C)[C@H](O)C[C@H]21 [Compound 4-94, 1-({[(2R,3R,11bR)-3-(2,2-dimethylpropyl)-2-hydroxy-10-methoxy-1H,2H,3H,4H,6H,7H,11bH-pyrido[2,1-a]isoquinolin-9-yl]oxy}methyl)cyclopropyl methanesulfonate] | 387 |  |  |  | 
COc1cc2c(cc1OCc1ncno1)CCN1C[C@@H](CC(C)(C)C)[C@H](O)C[C@H]21 [Compound 4-95, (2R,3R,11bR)-3-(2,2-dimethylpropyl)-10-methoxy-9-(1,2,4-oxadiazol-5-ylmethoxy)-1H,2H,3H,4H,6H,7H,11bH-pyrido[2,1-a]isoquinolin-2-ol] | > 10000 |  |  |  | 
COc1cc2c(cc1OCC1(S(C)(=O)=O)CC1)CCN1C[C@@H](CC(C)(C)C)[C@H](O)C[C@H]21 [Compound 4-96, (2R,3R,11bR)-3-(2,2-dimethylpropyl)-9-[(1-methanesulfonylcyclo-propyl)methoxy]-10-methoxy-1H,2H,3H,4H,6H,7H,11bH-pyrido[2,1-a]isoquinolin-2-ol] | > 10000 |  |  |  | 
COc1cc2c(cc1OCC1CCS(=O)(=O)CC1)CCN1C[C@@H](CC(C)(C)C)[C@H](O)C[C@H]21 [Compound 4-97, 4-({[(2R,3R,11bR)-3-(2,2-dimethylpropyl)-2-hydroxy-10-methoxy-1H,2H,3H,4H,6H,7H,11bH-pyrido[2,1-a]isoquinolin-9-yl]oxy}methyl)-1λ^6-thiane-1,1-dione] | > 10000 |  |  |  | 
COc1cc2c(cc1OC)[C@@H]1C[C@H](O)[C@@H](CC(C)(C)C)CN1CC2 [Compound 5-3, (2S,3S,11bS)-3-(2,2-dimethylpropyl)-9,10-dimethoxy-1H,2H,3H,4H,6H,7H,11bH-pyrido[2,1-a]isoquinolin-2-ol] | 700 |  |  |  | 
COc1cc2c(cc1OC)[C@@H]1C[C@@H](O)[C@@H](CC(C)(C)C)CN1CC2 [Compound 5-4, (2R,3S,11bS)-3-(2,2-dimethylpropyl)-9,10-dimethoxy-1H,2H,3H,4H,6H,7H,11bH-pyrido[2,1-a]isoquinolin-2-ol] | > 10000 |  |  |  | 
